Here are results for 7 compounds from patent US20230096766A1, “AMINO ACID HAVING FUNCTIONAL GROUP CAPABLE OF INTERMOLECULAR HYDROGEN BONDING, PEPTIDE COMPOUND CONTAINING SAME AND METHOD FOR PRODUCTION THEREOF” (Chugai Seiyaku Kabushiki Kaisha, priority 2018, published 2023).

Each structure is given as a SMILES string. *1 amine or outer side, *2 acyl side, *3 side chain or, on linkers, in order; H or OH if unused. Where a SMILES comes first, the peptide text is derived from it. Bridges are numbered along the chain shown (N, C = ends). [ ]: non-standard residue; d: D form. The star is where a group is joined. hPhe(3-OMe,4-CONHMe) = CNC(=O)c1ccc(CC[C@H](N)C(=O)O)cc1OC; Phe(3-OMe,4-CONHMe) = CNC(=O)c1ccc(C[C@H](N)C(=O)O)cc1OC; NMePhe(3-Cl) = CN[C@@H](Cc1cccc(Cl)c1)C(=O)O; Tyr(3-OMe) = COc1cc(C[C@H](N)C(=O)O)ccc1O; NMehPhe = CN[C@@H](CCc1ccccc1)C(=O)O; X7 = O=C(C[C@H](COCCO)N[*:1])[*:2]; NMeF = CN[C@@H](Cc1ccccc1)C(=O)O; NMeGABA = CN(CCCC(=O)[*:2])[*:1]; NMeI = CC[C@H](C)[C@H](NC)C(=O)O; CH2CH(OH)CF3 = OC(C*)C(F)(F)F; NMeL = CN[C@@H](CC(C)C)C(=O)O; NMeAbu = CC[C@H](NC)C(=O)O; Piperidide = C1CCN(*)CC1; NBuGly = CCCCNCC(=O)O; Isopentyl = CC(C)CC*; NPrGly = CCCNCC(=O)O; Ethyl(2-OH) = OCC*; Sar = CNCC(=O)O; tBu = CC(C)(C)*

The nature of one series: in vitro. To be noted: human, Caco-2, Caco-2 (cm/sec).
With `CCCCN1CC(=O)N(C)[C@@H](CC(C)C)C(=O)N[C@@H](COC(C)(C)C)C(=O)N(C)[C@@H]([C@@H](C)CC)C(=O)N(C)[C@@H](CC(C)C)C(=O)N[C@H](C(=O)N2CCCCC2)CC(=O)N[C@H](C)C(=O)N(C)[C@@H](Cc2ccccc2)C(=O)N[C@@H](Cc2ccc(C(=O)NC)c(OC)c2)C(=O)N(C)[C@@H](CC(C)C)C(=O)N[C@@H]([C@@H](C)O)C1=O` [AP29] ([dA][NMeF][Phe(3-OMe,4-CONHMe)][NMeL]T[NBuGly][NMeL]S(tBu)[NMeI][NMeL]D-Piperidide; lactam N-11), the apparent permeability (Papp) turned out to be 0.36 ×10⁻⁶ cm/s.

Regarding `CCCCN1CC(=O)N(C)[C@@H](Cc2ccccc2)C(=O)N(C)[C@@H](CC(C)C)C(=O)N[C@@H](CC(C)C)C(=O)N(C)[C@@H](CC(C)C)C(=O)N[C@H](C(=O)N2CCCCC2)CC(=O)N(C)CC(=O)N(C)[C@@H](CC(C)C)C(=O)N[C@@H](Cc2ccc(O)c(OC)c2)C(=O)N(C)[C@@H](CC)C(=O)N[C@@H]([C@@H](C)O)C1=O` [Compound E07] ([Sar][NMeL][Tyr(3-OMe)][NMeAbu]T[NBuGly][NMeF][NMeL]L[NMeL]D-Piperidide; lactam N-11), the apparent permeability coefficient (Papp) is 1.1 ×10⁻⁶ cm/s.

Compound `CNC(=O)c1ccc(CC[C@@H]2NC(=O)[C@H](CC(C)C)N(C)C(=O)CCCN(C)C(=O)C[C@@H](C(=O)N3CCCCC3)NC(=O)[C@H](CC(C)C)N(C)C(=O)[C@H](CC(C)C)N(C)C(=O)[C@H]([C@@H](C)O)NC(=O)[C@H](CC(C)C)N(C)C(=O)[C@H](COC(C)(C)C)NC(=O)[C@H](Cc3ccccc3)N(C)C(=O)[C@H](CC(C)C)N(C)C2=O)cc1OC` [AP203] ([NMeGABA][NMeL][hPhe(3-OMe,4-CONHMe)][NMeL][NMeF]S(tBu)[NMeL]T[NMeL][NMeL]D-Piperidide; lactam N-11) had an apparent permeability coefficient (Papp) of 0.41 ×10⁻⁶ cm/s.

As to `CCCN1CC(=O)N(C)[C@@H](CCc2ccccc2)C(=O)N(C)[C@@H](CC(C)C)C(=O)N[C@@H](COCCC(C)C)C(=O)N(C)[C@@H](CC(C)C)C(=O)N[C@H](C(=O)N2CCCCC2)CC(=O)N(C)CC(=O)N(C)[C@@H](Cc2cccc(Cl)c2)C(=O)N[C@@H](COCCO)C(=O)N(C)[C@@H](CC(C)C)C(=O)N[C@@H]([C@@H](C)O)C1=O` [Compound A07] ([Sar][NMePhe(3-Cl)]S(Ethyl(2-OH))[NMeL]T[NPrGly][NMehPhe][NMeL]S(Isopentyl)[NMeL]D-Piperidide; lactam N-11), the Papp worked out at 0.53 ×10⁻⁶ cm/s.

Take `CCCCN1CC(=O)N(C)[C@@H](CC(C)C)C(=O)N[C@@H](COCCO)CC(=O)N(C)[C@@H](Cc2ccccc2)C(=O)N(C)[C@@H](CC(C)C)C(=O)N[C@H](C(=O)N2CCCCC2)CC(=O)N[C@H](CC(C)C)C(=O)N(C)[C@@H](CC(C)C)C(=O)N[C@@H](Cc2ccccc2)C(=O)N(C)[C@@H](CC(C)C)C(=O)N[C@@H]([C@@H](C)O)C1=O` [AP21] ([dL][NMeL]F[NMeL]T[NBuGly][NMeL][X7][NMeF][NMeL]D-Piperidide; lactam N-11): the Papp stood at 0.21 ×10⁻⁶ cm/s.

`CC[C@H]1C(=O)N[C@@H](CC(C)C)C(=O)N(C)[C@@H](CC(C)C)C(=O)N(C)[C@@H](Cc2ccccc2)C(=O)N[C@@H](Cc2ccc(O)c(OC)c2)C(=O)N(C)[C@@H](CC(C)C)C(=O)N(C)[C@@H](CC(C)C)C(=O)N[C@@H]([C@@H](C)O)C(=O)N(C)CC(=O)N(C)[C@@H](CC(C)C)C(=O)N[C@H](C(=O)N2CCCCC2)CC(=O)N1C` [Compound E05] ([NMeAbu]L[NMeL][NMeF][Tyr(3-OMe)][NMeL][NMeL]T[Sar][NMeL]D-Piperidide; lactam N-11): the apparent permeability (Papp) came to 1.8 ×10⁻⁶ cm/s.

The series is the same for the next values; noted with them: human, Caco-2, Caco-2 (membrane permeability).
On to `CC(C)C[C@H]1C(=O)N[C@@H](COCC(O)C(F)(F)F)C(=O)N(C)[C@@H](Cc2cccc(Cl)c2)C(=O)N(C)[C@@H](Cc2ccccc2)C(=O)N[C@@H](COC(C)(C)C)C(=O)N(C)[C@@H](CC(C)C)C(=O)N[C@@H]([C@@H](C)O)C(=O)N(C)[C@@H](CC(C)C)C(=O)N(C)[C@@H](CC(C)C)C(=O)N[C@H](C(=O)N2CCCCC2)CC(=O)N(C)CCCC(=O)N1C` (stereo partly drawn) [Compound C02] ([NMeGABA][NMeL]S(CH2CH(OH)CF3)[NMePhe(3-Cl)][NMeF]S(tBu)[NMeL]T[NMeL][NMeL]D-Piperidide; lactam N-11), for which the Papp stood at 0.19 ×10⁻⁶ cm/s.

In general, Papp refers to a coefficient for how fast a substance crosses the barrier. Read a high Papp as ready permeation.
